Consider 6 compounds from patent US20100298141A1, “SUBSTITUTED PYRIDINE N-OXIDE HERBICIDES” (E. I. DU PONT DE NEMOURS AND COMPANY, priority 2007, published 2010).

The structures appear in SMILES notation.

One assay deals with wheat. Description: Test C pre-/postemergence test. In kind it is in vivo, Triticum aestivum. From the text: (§1) Seeds of plant species selected from blackgrass (Alopecurus myosuroides), downy brome (Bromus tectorum), green foxtail (Setaria viridis), Italian ryegrass (Lolium multiflorum), wheat (Triticum aestivum), wild oat (Avena fatua), catchweed bedstraw (Galium aparine), Russian thistle (Salsola kali), […] (Cynodon dactylon), Surinam grass (Brachiaria decumbens), cocklebur (Xanthium strumarium), corn (Zea mays), crabgrass (Digitaria sanguinalis), woolly cupgrass (Eriochloa villosa), giant foxtail (Setaria faberii), Goosegrass (Eleusin indica), johnsongrass (Sorghum halepense), kochia (Kochia scoparia), lambsquarters (Chenopodium album), morningglory (Ipomoea coccinea), eastern black nightshade (Solanum ptycanthum), yellow nutsedge (Cyperus esculentus), pigweed (Amaranthus retroflexus), common ragweed (Ambrosia elation), soybean (Glycine max), common (oilseed) sunflower (Helianthus annuus), and velvetleaf (Abutilon theophrasti) were planted and treated preemergence with test chemicals formulated in a non-phytotoxic solvent mixture which included a surfactant. At the same time, plants selected from these crop and weed species and also winter barley (Hordeum vulgare), canarygrass (Phalaris minor), and chickweed (Stellaria media) were treated with postemergence applications of some of the test chemicals formulated in the same manner. Plants ranged in height from 2 to 18 cm (1- to 4-leaf stage) for postemergence treatments. […] At time of treatment, test pots were flooded to 3 cm above the soil surface, treated by application of test compounds directly to the paddy water, and then maintained at that water depth for the duration of the test. […] A dash (-) response means no test result.

The subject of a further assay is velvetleaf. Description: Test A pre-/postemergence greenhouse test. In kind it is in vivo, Abutilon theophrasti. Particulars: for Velvetleaf plant response rating: 0 to 100 scale; for Plant response rating, Velvetleaf: 0 to 100 scale where 0 is no effect and 100 is complete control. The essentials: (§2)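 Test compounds in non-phytotoxic solvent with surfactant were applied as a preemergence soil spray to seeded loam/sand pots and, concurrently, postemergence to plants at 2–10 cm, one- to two-leaf stage. About ten days in greenhouse, then injury visually rated against untreated controls.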

For another assay, the system named is barnyardgrass. Briefly: Test C flooded paddy test. The class given is in vivo, Echinochloa crus-galli. Particulars: Flood. An outline of the steps: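 Greenhouse pots flooded to 3 cm above soil at time of treatment received compound via the water, which stayed at that level.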
The next assay concerns giant foxtail. Briefly: Test A pre-/postemergence greenhouse test. In kind it is in vivo, Setaria faberi. Particulars: for Foxtail, Giant plant response rating: 0 to 100 scale; for Plant response rating, Foxtail, Giant: 0 to 100 scale where 0 is no effect and 100 is complete control. An outline of the steps: as §2
For another assay, the system named is common ragweed. Briefly: Test C pre-/postemergence test. The class given is in vivo, Ambrosia elation.
Text: as §1

The mark [1] stands for this setting: 62 g ai/ha, preemergence, scale 0 (no effect) to 100 (complete control).
The mark [2] stands for this setting: preemergence, 125 g ai/ha, scale 0 (no effect) to 100 (complete control).
Where [3] appears, read: Postemergence, 125 g ai/ha, 0 is no effect, 100 is complete control.
The mark [4] stands for this setting: Postemergence, 500 g ai/ha, 0 is no effect, 100 is complete control.
Setting [5] is: Preemergence, 125 g ai/ha, 0 no effect, 100 complete control.
The mark [6] stands for this setting: 31 g ai/ha, scale 0 to 100 (0 no effect, 100 complete control).
The mark [7] stands for this setting: 62 g ai/ha, scale 0 to 100, 0 no effect, 100 complete control, 13 to 15 days.
The mark [8] stands for this setting: 125 g ai/ha, scale 0 to 100, 0 no effect, 100 complete control, 13 to 15 days.
The mark [9] stands for this setting: 62 g ai/ha, Preemergence, scale 0 to 100.
[10] abbreviates: 125 g ai/ha, preemergence, scale 0 (no effect) to 100 (complete control).
The mark [11] stands for this setting: Preemergence, 31 g ai/ha, scale 0 to 100 (0 no effect, 100 complete control).
Where [12] appears, read: preemergence, 250 g ai/ha, scale 0 (no effect) to 100 (complete control).
Where [13] appears, read: 62 g ai/ha, scale 0 to 100 (0 no effect, 100 complete control).
The mark [14] stands for this setting: 250 g ai/ha, scale 0 to 100, 0 no effect, 100 complete control, 13 to 15 days.
The mark [15] stands for this setting: Postemergence, 125 g ai/ha, scale 0 to 100, 0 no effect, 100 complete control.
Setting [16] is: Postemergence, 250 g ai/ha, scale 0 to 100, 0 no effect, 100 complete control.

For the compound `CC(c1c(C(F)(F)F)nn(C)c1Cl)S(=O)(=O)c1cccc[n+]1[O-]` (stereo not shown) [Compound 10], the “Wheat plant response rating” value turned out to be 35 in the assay with wheat (setting [1]) and 60 in the assay with wheat (setting [2]). In addition, in the assay with wheat (Preemergence, 250 g ai/ha), the “Plant response rating (0 to 100), Wheat” value was 80. For the same compound, the “Velvetleaf plant response rating” value stood at 0 in the assay on velvetleaf (setting [3]), 30 in the assay with velvetleaf (setting [4]) and 60 with velvetleaf (setting [5]). Further, the “Plant response rating, Velvetleaf” value in the assay with velvetleaf (Preemergence, 500 g ai/ha) is 60. Further, the “Plant response rating, Barnyardgrass” value was determined as 0 in the assay on barnyardgrass (setting [6]); 30 with barnyardgrass (setting [7]); 75 with barnyardgrass (setting [8]); 85 in the assay with barnyardgrass (250 g ai/ha, scale 0 to 100 (0 no effect, 100 complete control)). Further, the “Foxtail, Giant plant response rating” value in the assay with giant foxtail (setting [3]) amounted to 80; in the assay with giant foxtail (setting [4]) it was 90; with giant foxtail (setting [5]), 100. For the same compound, the “Plant response rating, Foxtail, Giant” value in the assay with giant foxtail (Preemergence, 500 g ai/ha) was found to be 100. The “Ragweed plant response rating” value in the assay on common ragweed (31 g ai/ha, Preemergence, scale 0 to 100) came to 60; in the assay with common ragweed (setting [1]), 80; with common ragweed (setting [2]), 100. The “Plant response rating (0 to 100), Ragweed” value in the assay with common ragweed (Preemergence, 250 g ai/ha) was 100.

Turning to `CCc1cc[n+]([O-])c([S+]([O-])Cc2c(C(F)(F)F)nn(C)c2OCC(F)(F)F)c1` (stereo not shown) [Compound 59], the “Wheat plant response rating” value in the assay with wheat (setting [9]) is given as 40; with wheat (setting [10]), 85; in the assay on wheat (setting [12]), 95. Besides, the “Plant response rating, Wheat” value in the assay on wheat (setting [11]) was 30. Moreover, the “Plant response rating, Velvetleaf” value is reported as 60 with velvetleaf (Postemergence, 125 g ai/ha) and 100 in the assay with velvetleaf (Preemergence, 500 g ai/ha). The figures for the “Velvetleaf plant response rating” value in the assay with velvetleaf (setting [4]) and in the assay with velvetleaf (setting [5]) were 80 and 60, respectively. Further, the “Plant response rating, Barnyardgrass” value worked out at 30 in the assay on barnyardgrass (setting [13]) and 60 with barnyardgrass (setting [14]). Moreover, the “Plant response rating, Foxtail, Giant” value in the assay with giant foxtail (Postemergence, 125 g ai/ha) is listed as 60; in the assay on giant foxtail (Preemergence, 500 g ai/ha), 100. Also, the “Foxtail, Giant plant response rating” value in the assay on giant foxtail (setting [4]) stood at 90; in the assay on giant foxtail (setting [5]) it was 100. The “Ragweed plant response rating” value was 30 with common ragweed (setting [9]), 100 in the assay with common ragweed (setting [10]) and 100 with common ragweed (setting [12]).

For `CC(c1c(C(F)(F)F)nn(C)c1Cl)S(=O)(=O)c1ccc(Cl)c[n+]1[O-]` (racemic) [Compound 40], the “Plant response rating (0 to 100), Wheat” value in the assay with wheat (Postemergence, 31 g ai/ha) is 0; in the assay with wheat (Postemergence, 62 g ai/ha), 0. The entries for the “Plant response rating, Wheat” value in the assay on wheat (setting [15]) and in the assay with wheat (setting [16]) were 0 and 5, respectively. Besides, the “Velvetleaf plant response rating” value with velvetleaf (setting [3]) is 50; with velvetleaf (setting [4]) it was 60; in the assay on velvetleaf (setting [5]) it was 0. Further, the “Plant response rating, Velvetleaf” value with velvetleaf (Preemergence, 500 g ai/ha) was found to be 50. For the same compound, the “Plant response rating, Barnyardgrass” value in the assay with barnyardgrass (setting [6]) worked out at 0; in the assay on barnyardgrass (setting [7]), 15; in the assay on barnyardgrass (setting [8]), 60; in the assay with barnyardgrass (setting [14]) it was 65. In addition, the “Foxtail, Giant plant response rating” value in the assay on giant foxtail (setting [3]) was 80; in the assay with giant foxtail (setting [4]), 90; with giant foxtail (setting [5]) it was 90. For the same compound, the “Plant response rating, Foxtail, Giant” value with giant foxtail (Preemergence, 500 g ai/ha) is 100. In addition, the “Plant response rating (0 to 100), Ragweed” value in the assay with common ragweed (Postemergence, 31 g ai/ha) was 0; in the assay on common ragweed (Postemergence, 62 g ai/ha) it was 0. Besides, the “Plant response rating, Ragweed” value in the assay on common ragweed (setting [15]) was determined as 0; in the assay on common ragweed (setting [16]), 5.

As to `Cn1nc(C(F)(F)F)c(CS(=O)(=O)c2cccc[n+]2[O-])c1OCC(F)F` [Compound 81], the “Wheat plant response rating” value amounted to 5 in the assay with wheat (setting [9]), 80 with wheat (setting [10]) and 80 with wheat (setting [12]). Also, the “Plant response rating, Wheat” value in the assay with wheat (setting [11]) is given as 0. Further, the “Plant response rating, Velvetleaf” value is 10 in the assay on velvetleaf (Postemergence, 125 g ai/ha) and 100 in the assay on velvetleaf (Preemergence, 500 g ai/ha). Further, the “Velvetleaf plant response rating” value in the assay with velvetleaf (setting [4]) came to 70; in the assay with velvetleaf (setting [5]) it was 10. For the same compound, the “Plant response rating, Barnyardgrass” value with barnyardgrass (setting [13]) and with barnyardgrass (setting [14]) was 0 in each case. For the same compound, the “Plant response rating, Foxtail, Giant” value in the assay with giant foxtail (Postemergence, 125 g ai/ha) is on record as 80; in the assay on giant foxtail (Preemergence, 500 g ai/ha), 100. Also, the “Foxtail, Giant plant response rating” value in the assay on giant foxtail (setting [4]) was found to be 80; in the assay with giant foxtail (setting [5]), 90. In addition, the “Ragweed plant response rating” value stood at 80 in the assay on common ragweed (setting [9]), 100 in the assay on common ragweed (setting [10]) and 100 in the assay on common ragweed (setting [12]). In the assay on common ragweed (setting [11]), the “Plant response rating, Ragweed” value came to 0.

In the case of `Cn1nc(C(F)(F)F)c(C[S+]([O-])c2cccc[n+]2[O-])c1OCC(F)(F)C(F)(F)F` (stereo not shown) [Compound 78], the “Plant response rating (0 to 100), Wheat” value with wheat (Postemergence, 31 g ai/ha) was 0; in the assay with wheat (Postemergence, 62 g ai/ha), 0. Further, the “Plant response rating, Wheat” value with wheat (setting [15]) and in the assay with wheat (setting [16]) was 10 in each case. In addition, the “Plant response rating, Velvetleaf” value with velvetleaf (Postemergence, 125 g ai/ha) is listed as 30; in the assay on velvetleaf (Preemergence, 500 g ai/ha) it was 90. For the same compound, the “Velvetleaf plant response rating” value worked out at 70 with velvetleaf (setting [4]) and 0 with velvetleaf (setting [5]). Further, the “Plant response rating, Barnyardgrass” value in the assay with barnyardgrass (setting [13]) is 0; in the assay with barnyardgrass (setting [14]), 50. In addition, the “Plant response rating, Foxtail, Giant” value came out at 80 with giant foxtail (Postemergence, 125 g ai/ha) and 100 with giant foxtail (Preemergence, 500 g ai/ha). Also, the “Foxtail, Giant plant response rating” value in the assay with giant foxtail (setting [4]) was determined as 80; with giant foxtail (setting [5]) it was 90. Besides, the “Plant response rating (0 to 100), Ragweed” value in the assay on common ragweed (Postemergence, 31 g ai/ha) turned out to be 0; in the assay with common ragweed (Postemergence, 62 g ai/ha) it was 0. In addition, the “Plant response rating, Ragweed” value in the assay on common ragweed (setting [15]) and in the assay on common ragweed (setting [16]) was 0 each time.

On to `Cn1nc(C(F)(F)F)c(C[S+]([O-])c2cc(F)cc[n+]2[O-])c1Cl` (racemic) [Compound 42], for which the “Wheat plant response rating” value was 0 in the assay on wheat (setting [9]), 10 with wheat (setting [10]) and 70 with wheat (setting [12]). The “Plant response rating, Wheat” value in the assay on wheat (setting [11]) stood at 0. Moreover, the entries for the “Velvetleaf plant response rating” value with velvetleaf (setting [3]), in the assay on velvetleaf (setting [4]) and with velvetleaf (setting [5]) were 0, 60 and 10, respectively. For the same compound, the “Plant response rating, Velvetleaf” value in the assay with velvetleaf (Preemergence, 500 g ai/ha) is 80. In addition, the “Plant response rating, Barnyardgrass” value in the assay on barnyardgrass (setting [6]) is listed as 0; with barnyardgrass (setting [7]), 0; in the assay with barnyardgrass (setting [8]), 40; in the assay on barnyardgrass (setting [14]), 55. Also, the entries for the “Foxtail, Giant plant response rating” value with giant foxtail (setting [3]), in the assay with giant foxtail (setting [4]) and in the assay on giant foxtail (setting [5]) were 80, 90 and 100, respectively. In addition, the “Plant response rating, Foxtail, Giant” value in the assay with giant foxtail (Preemergence, 500 g ai/ha) turned out to be 100. Also, the “Ragweed plant response rating” value is on record as 70 in the assay on common ragweed (setting [9]), 90 in the assay with common ragweed (setting [10]) and 90 in the assay with common ragweed (setting [12]). Further, the “Plant response rating, Ragweed” value in the assay with common ragweed (setting [11]) was 5.
